Source: ChEMBL document CHEMBL1131216, “Anhydrolide macrolides. 2. Synthesis and antibacterial activity of 2,3-anhydro-6-O-methyl 11,12-carbazate erythromycin A analogues” (1998)
In brackets after ≈: the same amount, converted by molar mass.

Tests used:
Assay type in all cases: functional
Staphylococcus aureus [1] = assay: In vitro antibacterial activity of 6538P strain of Gram positive bacteria Staphylococcus aureus
Staphylococcus aureus [2] = assay: In vitro antibacterial activity of A-5278 strain of Gram positive bacteria Staphylococcus aureus
Streptococcus pneumoniae [3] = assay: In vitro antibacterial activity of 5979 strain of Gram positive bacteria Streptococcus pneumoniae
Staphylococcus aureus [4] = assay: In vivo antibacterial activity of NCTC-10649 strain of Gram positive bacteria Staphylococcus aureus (95% confidence interval)
Haemophilus influenzae = assay: In vitro antibacterial activity of DILL strain of Gram negative bacteria Haemophilus influenzae
Streptococcus pneumoniae [5] = assay: In vitro antibacterial activity of 5649 strain of Gram positive bacteria Streptococcus pneumoniae
Streptococcus pneumoniae [6] = assay: In vitro antibacterial activity of ATCC 6303 strain of Gram positive bacteria Streptococcus pneumoniae
Streptococcus pyogenes [7] = assay: In vitro antibacterial activity of 930 strain of Gram positive bacteria Streptococcus pyogenes
Streptococcus pyogenes [8] = assay: In vitro antibacterial activity of EES61 strain of Gram positive bacteria Streptococcus pyogenes
Staphylococcus aureus [9] = assay: In vitro antibacterial activity of A5177 strain of Gram positive bacteria Staphylococcus aureus
Staphylococcus aureus [10] = assay: In vivo antibacterial activity of NCTC-10649 strain of Gram positive bacteria Staphylococcus aureus
Streptococcus pyogenes [11] = assay: In vitro antibacterial activity of PIU2584 strain of Gram positive bacteria Streptococcus pyogenes
Streptococcus pneumoniae [12] = assay: In vivo antibacterial activity of ATCC 6303 strain of Gram positive bacteria Streptococcus pneumoniae
Streptococcus pneumoniae [13] = assay: In vivo antibacterial activity of ATCC 6303 strain of Gram positive bacteria Streptococcus pneumoniae (95% confidence interval)

MIC (Staphylococcus aureus [1]): 0.2 µg/mL (≈ 0.269 µM)
MIC (Staphylococcus aureus [2]): > 100 µg/mL
MIC (Streptococcus pneumoniae [3]): > 128 µg/mL
MIC (Haemophilus influenzae): 2 µg/mL (≈ 2.69 µM)
MIC (Streptococcus pneumoniae [5]): 1 µg/mL (≈ 1.35 µM)
MIC (Streptococcus pneumoniae [6]): 0.03 µg/mL (≈ 0.0404 µM)
MIC (Streptococcus pyogenes [7]): > 128 µg/mL
MIC (Streptococcus pyogenes [8]): 0.03 µg/mL (≈ 0.0404 µM)
MIC (Staphylococcus aureus [9]): 0.2 µg/mL (≈ 0.269 µM)
MIC (Staphylococcus aureus [10]): 0.2 µg/mL (≈ 0.269 µM)
MIC (Streptococcus pyogenes [11]): 1 µg/mL (≈ 1.35 µM)
MIC (Streptococcus pneumoniae [12]): 0.03 µg/mL (≈ 0.0404 µM)
SMILES: CC[C@H]1OC(=O)/C(C)=C/[C@H](C)[C@@H](O[C@@H]2O[C@H](C)C[C@H](N(C)C)[C@H]2O)[C@@](C)(OC)C[C@@H](C)C(=O)[C@H](C)[C@H]2N(NC/C=C/c3ccc(N)cc3)C(=O)O[C@]12C
ED50 (Staphylococcus aureus [4]): 39.9 mg/kg/day
ED50 (Streptococcus pneumoniae [13]): 9.9 mg/kg/day
